Experimental data reported in patent publication US20220252575A1, “SCREENING METHOD AND TOXICITY EVALUATION METHOD” (Public University Corporation Yokohama City University, priority 2019, published 2022).

Tested on: iPS cell-derived human hepatic sinusoidal endothelial cells
Assay: Detection of membrane attack complex in iPS cell-derived human hepatic sinusoidal endothelial cell with Oxaliplatin administration
Format: cell-based
Conditions: Oxaliplatin final concentration 20 μM vs solvent (ethanol), 3% human serum, 10% organoid culture supernatant

With `O=C1[O][Pt]2([NH][C@@H]3CCCC[C@H]3[NH]2)[O]C1=O` [Oxaliplatin] the “number of cells (quantified with DAPI as an index)” value (24 hr (FIG. 4A)) was “significant decrease in the number of cells” and the “amount of MAC formed by human serum” value (24 hr (FIG. 4B)) was “significantly increased”.
